#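 Values below derive from 48-hour exposures of cells grown in 96-well plates, with endpoints linearly interpolated between the two concentrations bracketing the appropriate inhibition level. TGI denotes the concentration required for complete inhibition of growth.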
# Experiments:
# Experiment in all cases: growth of human tumour cells (NCI), 48 h
# CAKI-1 renal = tested on: CAKI-1 renal
# COLO 205 colon = tested on: COLO 205 colon
# BT-549 breast = tested on: BT-549 breast
# UO-31 renal = tested on: UO-31 renal
# SNB-19 CNS = tested on: SNB-19 CNS
# OVCAR-4 ovarian = tested on: OVCAR-4 ovarian
# IGROV1 ovarian = tested on: IGROV1 ovarian
# MCF7 breast = tested on: MCF7 breast
# KM12 colon = tested on: KM12 colon
# NCI-H226 lung = tested on: NCI-H226 lung
# A498 renal = tested on: A498 renal
# HL-60(TB) leukemia = tested on: HL-60(TB) leukemia
# RXF 393 renal = tested on: RXF 393 renal
# DU-145 prostate = tested on: DU-145 prostate
# A549 NSCLC = tested on: A549 NSCLC
# SR leukemia = tested on: SR leukemia
# HOP-62 NSCLC = tested on: HOP-62 NSCLC
# TK-10 renal = tested on: TK-10 renal
# MALME-3M melanoma = tested on: MALME-3M melanoma
# OVCAR-3 ovarian = tested on: OVCAR-3 ovarian
# MDA-N = tested on: MDA-N
# SF-295 CNS = tested on: SF-295 CNS
# HCC-2998 colon = tested on: HCC-2998 colon
# NCI-H23 lung = tested on: NCI-H23 lung
# SF-539 CNS = tested on: SF-539 CNS
# EKVX NSCLC = tested on: EKVX NSCLC
# 786-0 renal = tested on: 786-0 renal
# K-562 leukemia = tested on: K-562 leukemia
# SW-620 colon = tested on: SW-620 colon
# HCT-116 colon = tested on: HCT-116 colon
# ACHN renal = tested on: ACHN renal
# SN12C renal = tested on: SN12C renal
# HCT-15 colon = tested on: HCT-15 colon
# U251 CNS = tested on: U251 CNS
# HT29 colon = tested on: HT29 colon
# MOLT-4 leukemia = tested on: MOLT-4 leukemia
# HOP-92 NSCLC = tested on: HOP-92 NSCLC
# UACC-257 melanoma = tested on: UACC-257 melanoma
# NCI-H522 lung = tested on: NCI-H522 lung
# SK-MEL-5 melanoma = tested on: SK-MEL-5 melanoma
# SK-MEL-28 melanoma = tested on: SK-MEL-28 melanoma
# M14 melanoma = tested on: M14 melanoma
# MDA-MB-435 = tested on: MDA-MB-435
# OVCAR-8 ovarian = tested on: OVCAR-8 ovarian
# PC-3 prostate = tested on: PC-3 prostate
# NCI-H460 lung = tested on: NCI-H460 lung
# SK-OV-3 ovarian = tested on: SK-OV-3 ovarian
# RPMI-8226 leukemia = tested on: RPMI-8226 leukemia
# CCRF-CEM leukemia = tested on: CCRF-CEM leukemia
# T-47D breast = tested on: T-47D breast
# UACC-62 melanoma = tested on: UACC-62 melanoma
# SK-MEL-2 melanoma = tested on: SK-MEL-2 melanoma
# NCI/ADR-RES ovarian = tested on: NCI/ADR-RES ovarian
# OVCAR-5 ovarian = tested on: OVCAR-5 ovarian
# MDA-MB-231 breast = tested on: MDA-MB-231 breast
# SF-268 CNS = tested on: SF-268 CNS
# SNB-75 CNS = tested on: SNB-75 CNS
# LOX IMVI melanoma = tested on: LOX IMVI melanoma
smiles,measurement,setting,value
CC1(CO)OC(n2cnc3cncnc32)CC1O (stereo unspecified),TGI,CAKI-1 renal,> 100 µM
same,TGI,COLO 205 colon,> 100 µM
same,TGI,BT-549 breast,> 100 µM
same,TGI,UO-31 renal,> 100 µM
same,TGI,SNB-19 CNS,> 100 µM
same,TGI,OVCAR-4 ovarian,> 100 µM
same,TGI,IGROV1 ovarian,> 100 µM
same,TGI,MCF7 breast,> 100 µM
same,TGI,KM12 colon,> 100 µM
same,TGI,NCI-H226 lung,> 100 µM
same,TGI,A498 renal,> 100 µM
same,TGI,HL-60(TB) leukemia,> 100 µM
same,TGI,RXF 393 renal,> 100 µM
same,TGI,DU-145 prostate,> 100 µM
same,TGI,A549 NSCLC,> 100 µM
same,TGI,SR leukemia,> 100 µM
same,TGI,HOP-62 NSCLC,> 100 µM
same,TGI,TK-10 renal,> 100 µM
same,TGI,MALME-3M melanoma,> 100 µM
same,TGI,OVCAR-3 ovarian,> 100 µM
same,TGI,MDA-N,> 100 µM
same,TGI,SF-295 CNS,> 100 µM
same,TGI,HCC-2998 colon,> 100 µM
same,TGI,NCI-H23 lung,> 100 µM
same,TGI,SF-539 CNS,> 100 µM
same,TGI,EKVX NSCLC,> 100 µM
same,TGI,786-0 renal,> 100 µM
same,TGI,K-562 leukemia,> 100 µM
same,TGI,SW-620 colon,> 100 µM
same,TGI,HCT-116 colon,> 100 µM
same,TGI,ACHN renal,> 100 µM
same,TGI,SN12C renal,> 100 µM
same,TGI,HCT-15 colon,> 100 µM
same,TGI,U251 CNS,> 100 µM
same,TGI,HT29 colon,> 100 µM
same,TGI,MOLT-4 leukemia,> 100 µM
same,TGI,HOP-92 NSCLC,> 100 µM
same,TGI,UACC-257 melanoma,> 100 µM
same,TGI,NCI-H522 lung,> 100 µM
same,TGI,SK-MEL-5 melanoma,> 100 µM
same,TGI,SK-MEL-28 melanoma,> 100 µM
same,TGI,M14 melanoma,> 100 µM
same,TGI,MDA-MB-435,> 100 µM
same,TGI,OVCAR-8 ovarian,> 100 µM
same,TGI,PC-3 prostate,> 100 µM
same,TGI,NCI-H460 lung,> 100 µM
same,TGI,SK-OV-3 ovarian,> 100 µM
same,TGI,RPMI-8226 leukemia,> 100 µM
same,TGI,CCRF-CEM leukemia,> 100 µM
same,TGI,T-47D breast,> 100 µM
same,TGI,UACC-62 melanoma,> 100 µM
same,TGI,SK-MEL-2 melanoma,> 100 µM
same,TGI,NCI/ADR-RES ovarian,> 100 µM
same,TGI,OVCAR-5 ovarian,> 100 µM
same,TGI,MDA-MB-231 breast,> 100 µM
same,TGI,SF-268 CNS,> 100 µM
C=C(C)C(=O)OC1CC2(C)OC(=CC2=O)C(C)CC2OC(=O)C(=C)C12 (stereo unspecified),TGI,CAKI-1 renal,9.02 µM
same,TGI,COLO 205 colon,3.31 µM
same,TGI,BT-549 breast,21.4 µM
same,TGI,UO-31 renal,16.6 µM
same,TGI,SNB-19 CNS,39.2 µM
same,TGI,OVCAR-4 ovarian,20.1 µM
same,TGI,IGROV1 ovarian,25.4 µM
same,TGI,MCF7 breast,26.6 µM
same,TGI,KM12 colon,55.3 µM
same,TGI,SNB-75 CNS,49.2 µM
same,TGI,NCI-H226 lung,> 62.8 µM
same,TGI,A498 renal,37.6 µM
same,TGI,RXF 393 renal,5.62 µM
same,TGI,DU-145 prostate,18.7 µM
same,TGI,A549 NSCLC,47.7 µM
same,TGI,SR leukemia,> 24.7 µM
same,TGI,HOP-62 NSCLC,38.1 µM
same,TGI,TK-10 renal,28.3 µM
same,TGI,MALME-3M melanoma,16.1 µM
same,TGI,OVCAR-3 ovarian,19 µM
same,TGI,MDA-N,7.98 µM
same,TGI,SF-295 CNS,38.1 µM
same,TGI,HCC-2998 colon,24.8 µM
same,TGI,NCI-H23 lung,24.6 µM
same,TGI,SF-539 CNS,14.2 µM
same,TGI,EKVX NSCLC,25.1 µM
same,TGI,786-0 renal,17.6 µM
same,TGI,LOX IMVI melanoma,17.8 µM
same,TGI,SW-620 colon,18.3 µM
same,TGI,HCT-116 colon,5.15 µM
same,TGI,ACHN renal,14.4 µM
same,TGI,SN12C renal,36.7 µM
same,TGI,HCT-15 colon,5.19 µM
same,TGI,U251 CNS,74.5 µM
same,TGI,HT29 colon,24.2 µM
same,TGI,MOLT-4 leukemia,> 35.1 µM
same,TGI,HOP-92 NSCLC,28.7 µM
same,TGI,UACC-257 melanoma,35.2 µM
same,TGI,NCI-H522 lung,4.2 µM
same,TGI,SK-MEL-5 melanoma,13.4 µM
same,TGI,SK-MEL-28 melanoma,30.2 µM
same,TGI,M14 melanoma,24.2 µM
same,TGI,MDA-MB-435,25.8 µM
same,TGI,OVCAR-8 ovarian,35.6 µM
same,TGI,PC-3 prostate,31.8 µM
same,TGI,NCI-H460 lung,29.7 µM
same,TGI,SK-OV-3 ovarian,> 100 µM
same,TGI,RPMI-8226 leukemia,> 100 µM
same,TGI,T-47D breast,27.8 µM
same,TGI,UACC-62 melanoma,27.7 µM
same,TGI,SK-MEL-2 melanoma,34.3 µM
same,TGI,NCI/ADR-RES ovarian,69.8 µM
same,TGI,OVCAR-5 ovarian,26.9 µM
same,TGI,MDA-MB-231 breast,38.8 µM
same,TGI,SF-268 CNS,> 100 µM
CCOC(=O)N/N=C(\Cc1ccccc1)OCC,TGI,COLO 205 colon,> 100 µM
same,TGI,BT-549 breast,> 100 µM
same,TGI,UO-31 renal,> 100 µM
same,TGI,SNB-19 CNS,> 100 µM
same,TGI,OVCAR-4 ovarian,> 100 µM
same,TGI,IGROV1 ovarian,> 100 µM
same,TGI,MCF7 breast,> 100 µM
same,TGI,KM12 colon,> 100 µM
same,TGI,SNB-75 CNS,> 100 µM
same,TGI,RXF 393 renal,> 100 µM
same,TGI,DU-145 prostate,> 100 µM
same,TGI,A549 NSCLC,> 100 µM
same,TGI,SR leukemia,> 100 µM
same,TGI,HOP-62 NSCLC,> 100 µM
same,TGI,TK-10 renal,> 100 µM
same,TGI,OVCAR-3 ovarian,> 100 µM
same,TGI,MDA-N,> 100 µM
same,TGI,SF-295 CNS,> 100 µM
same,TGI,HCC-2998 colon,> 100 µM
same,TGI,NCI-H23 lung,> 100 µM
same,TGI,SF-539 CNS,> 100 µM
same,TGI,EKVX NSCLC,> 100 µM
same,TGI,786-0 renal,> 100 µM
same,TGI,K-562 leukemia,> 100 µM
same,TGI,LOX IMVI melanoma,> 100 µM
same,TGI,SW-620 colon,> 100 µM
same,TGI,HCT-116 colon,> 100 µM
same,TGI,ACHN renal,> 100 µM
same,TGI,SN12C renal,> 100 µM
same,TGI,HCT-15 colon,> 100 µM
same,TGI,U251 CNS,> 100 µM
same,TGI,HT29 colon,> 100 µM
same,TGI,MOLT-4 leukemia,> 100 µM
same,TGI,HOP-92 NSCLC,> 100 µM
same,TGI,UACC-257 melanoma,> 100 µM
same,TGI,NCI-H522 lung,> 100 µM
same,TGI,SK-MEL-5 melanoma,> 100 µM
same,TGI,M14 melanoma,> 100 µM
same,TGI,MDA-MB-435,> 100 µM
same,TGI,OVCAR-8 ovarian,> 100 µM
same,TGI,PC-3 prostate,> 100 µM
same,TGI,SK-OV-3 ovarian,> 100 µM
same,TGI,RPMI-8226 leukemia,> 100 µM
same,TGI,CCRF-CEM leukemia,> 100 µM
same,TGI,UACC-62 melanoma,> 100 µM
same,TGI,SK-MEL-2 melanoma,> 100 µM
same,TGI,NCI/ADR-RES ovarian,> 100 µM
same,TGI,OVCAR-5 ovarian,> 100 µM
same,TGI,MDA-MB-231 breast,> 100 µM
same,TGI,SF-268 CNS,> 100 µM

# From PubChem BioAssay (NCI)
